# Assay results: patent US20100056606A1, “Combination therapy using budesonide and antisense oligonucleotide targeted to IL4-receptor alpha” (ISIS Pharmaceuticals, Inc., priority 2005, published 2010)
# Legend:
# [1] = tested on: IL-4R alpha protein; assay: IL-4R alpha protein on lung cells by flow cytometry, rechallenge model; assay type: in vivo, mouse
# Experimental: The rechallenge model of allergic inflammation includes a second series of nebulized OVA challenges on days 66 and 67 in addition to the sensitization and challenge steps of the acute model. This model allows for the evaluation of the target's role in a recall response, as opposed to its role as an initiator molecule. In the rechallenge model, mice were treated with 10, 100 or 500 μg/kg of either ISIS 231894 or the mismatch control oligonucleotide on days 52, 54, 56, 59 and 61, subsequent to the onset and resolution of the OVA-induced acute inflammatory response, delivered by nose only inhalation. The study endpoints were similar to those in the acute model, and included Penh response (i.e. AHR reduction), inflammatory cells and cytokines in BAL (determined by ELISA), mucus accumulation (as determined by periodic acid-Schiff base [PAS] staining in lungs), lung histology and IL-4R alpha protein reduction in lung epithelial and inflammatory cells (as determined by flow cytometry). The results are shown below in Tables 5 and 6.
# [2] = tested on: OVA sensitized mice; assay: Acute allergic inflammation mouse model with inhaled budesonide and/or ISIS 231894; assay type: in vivo; details: 1 μg/kg ISIS 231894 alone (Table 9)
# Experimental: In the mouse model of allergic inflammation, mice are sensitized and challenged with aerosolized chicken ovalbumin (OVA). Airway responsiveness is assessed by inducing airflow obstruction using a noninvasive method whereby unrestrained conscious OVA sensitized mice are placed into the main chamber of a plethysmograph (Buxco Electronics, Inc. Troy, N.Y.) and challenged with aerosolized methacholine. Pressure difference between this chamber and a reference chamber is used to extrapolate minute volume, breathing frequency and enhanced pause (Penh). Penh is a dimensionless parameter that is a function of total pulmonary airflow (i.e. the sum of the airflow in the upper and lower respiratory tracts) during the respiratory cycle of a mouse and is lower when airflow is greater.
# For the acute model of allergic inflammation, mice were sensitized with 20 μg of alum-precipitated OVA was injected intraperitoneally on days 0 and 14. On days 24, 25 and 26, animals were exposed for 20 minutes to 1% OVA (in saline) by ultrasonic nebulization. On days 17, 19, 21, 24 and 26 animals were dosed with vehicle alone (saline), 1 μg/kg or 10 μg/kg of ISIS 231894 or the mismatch control oligonucleotide. Oligonucleotides or vehicle were suspended in 0.9% sodium chloride and delivered via inhalation using a nose-only aerosol delivery exposure system. A Lovelace nebulizer set at a flow rate of 1.4 liter per minute feeding into a total flow rate of 10 liters per minute was used to deliver the oligonucleotide. The exposure chamber was equilibrated with an oligonucleotide aerosol solution for 5 minutes before mice were placed in a restraint tube attached to the chamber. Restrained mice were treated for a total of 10 minutes. Analysis was performed on day 28.
# The acute mouse model of allergic inflammation was used to determine if co-administration of inhaled IL-4R alpha antisense oligonucleotide would enhance the activity of inhaled budesonide, or reduce the dose required to produce anti-inflammatory activity. As described in Example 6, mice were sensitized with alum-precipitated OVA at day 0 and day 14 and nebulized with OVA in saline on days 24, 25 and 26. All mice were analyzed on day 28. Budesonide (0.3, 3, 30, and 300 μg/kg dissolved in PBS Containing 20% DMSO) was administered by nose-only aerosol exposure beginning on day 23 (24 and 20 hours before OVA exposure) and then daily through day 26, one hour prior to daily OVA exposure. The 30 μg/kg dose was also administered twice a day (bid) from day 23-26 as a separate group. As in Example 6, ISIS 231894 was administered by nose-only aerosol exposure at day 17, 19, 21, 23 and 26.
# The effect of budesonide and/or ISIS 231894 treatment on AHR, BAL eosinophil infiltration and mucus accumulation (number of PAS-positive airways) were determined.
substance,measurement,setting,value
"ISIS 231894: lead antisense oligonucleotide targeted to mouse IL-4R alpha; CCGCTGTTCTCAGGTGACAT; SEQ ID NO: 24; 2'-MOE gapmer, phosphorothioate (all phosphorothioate, sugars by position and methylation of C not given here; 2'-MOE gapmer)","target protein (IL-4R alpha), Dendritic cells",[1]; 10 μg/kg inhaled,25 % positive cells
same,"target protein (IL-4R alpha), Macrophages/Eosinophils",[1]; 10 μg/kg inhaled,18 % positive cells
same,"target protein (IL-4R alpha), Dendritic cells",[1]; 100 μg/kg inhaled,18 % positive cells
same,"target protein (IL-4R alpha), Macrophages/Eosinophils",[1]; 100 μg/kg inhaled,20 % positive cells
same,"target protein (IL-4R alpha), Dendritic cells",[1]; 500 μg/kg inhaled,10 % positive cells
same,"target protein (IL-4R alpha), Macrophages/Eosinophils",[1]; 500 μg/kg inhaled,17 % positive cells
same,"IL-4R alpha surface expression on lung eosinophils, macrophages and dendritic cells, in words",[1]; flow cytometry,reduced the amount of IL-4R alpha surface expression
same,% Eosinophils (BAL),[2],27%
same,PAS+ airways (mucus accumulation),[2],21
same,Penh (100 mg/mL methacholine),[2],6.2
